Data reported in patent US8329904B2, “Azacyclic derivatives” (Hoffmann-La Roche Inc., priority 2009, dated 2012).

molecular target: T1, human HSL (Homo sapiens, UniProt Q05469); experiment: Human Hormone-Sensitive Lipase (HSL) Enzyme Inhibition Assay; assay type: biochemical; conditions: colorimetric assay, 2,3-dimercapto-1-propanol tributyrate (DMPT) substrate, 37° C. for 20 minutes, absorbance at 405 nm; read-out: HSL hum IC50
T1 construct: overlapping PCR to generate a full length human HSL ORF with a 3′-His6 tag; His6 (C); made in house; host or cells: High 5 insect cells (baculovirus, pFast-BAC)
T1 sequence (Q05469 1-1076): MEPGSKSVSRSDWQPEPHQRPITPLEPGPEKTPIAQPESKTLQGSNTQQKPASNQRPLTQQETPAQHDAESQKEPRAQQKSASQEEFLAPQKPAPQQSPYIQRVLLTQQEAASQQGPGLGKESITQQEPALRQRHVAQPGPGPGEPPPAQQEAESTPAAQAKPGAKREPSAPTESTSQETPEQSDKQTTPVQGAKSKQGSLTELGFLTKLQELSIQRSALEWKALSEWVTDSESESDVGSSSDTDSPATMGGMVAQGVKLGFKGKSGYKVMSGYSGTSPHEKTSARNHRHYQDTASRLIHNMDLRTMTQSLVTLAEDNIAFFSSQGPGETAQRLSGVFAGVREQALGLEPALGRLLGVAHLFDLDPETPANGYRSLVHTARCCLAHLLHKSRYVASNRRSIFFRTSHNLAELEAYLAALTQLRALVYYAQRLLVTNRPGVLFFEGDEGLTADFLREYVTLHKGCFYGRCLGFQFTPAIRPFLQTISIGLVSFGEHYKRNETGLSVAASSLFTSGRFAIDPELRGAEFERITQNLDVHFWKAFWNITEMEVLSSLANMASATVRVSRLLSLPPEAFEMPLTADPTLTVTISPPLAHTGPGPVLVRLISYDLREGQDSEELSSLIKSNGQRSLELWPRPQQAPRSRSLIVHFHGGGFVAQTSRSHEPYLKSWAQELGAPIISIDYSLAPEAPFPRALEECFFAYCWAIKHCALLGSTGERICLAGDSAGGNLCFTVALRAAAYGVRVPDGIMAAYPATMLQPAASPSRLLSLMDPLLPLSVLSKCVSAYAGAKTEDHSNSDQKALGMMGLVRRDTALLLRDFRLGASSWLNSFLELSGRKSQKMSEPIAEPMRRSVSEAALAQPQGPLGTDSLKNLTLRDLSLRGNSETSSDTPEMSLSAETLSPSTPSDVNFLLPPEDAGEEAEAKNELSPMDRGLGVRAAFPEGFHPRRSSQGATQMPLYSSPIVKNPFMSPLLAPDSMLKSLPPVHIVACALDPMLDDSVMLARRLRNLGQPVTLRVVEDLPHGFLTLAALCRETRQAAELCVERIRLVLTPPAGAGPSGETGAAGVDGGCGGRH
How it was run: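 Colorimetric thioester hydrolysis: compounds in DMSO series mixed with DMPT (1.5 mM) in MOPS pH 7.2 with BSA, then baculovirus-expressed His6-tagged full-length human HSL added, 37° C, 20 min. DTNB plus detergents added, 15 min room temperature, absorbance at 405 nm.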

| SMILES | IC50 |
| --- | --- |
| CC(Oc1ccc(N2CCC3(CCN(S(=O)(=O)c4ccccc4Cl)CC3)C2=O)cc1)C(F)(F)F (centres unmarked) [Example 125, 8-(2-Chloro-benzenesulfonyl)-2-[4-(2,2,2-trifluoro-1-methyl-ethoxy)-phenyl]-2,8-diaza-spiro[4.5]decan-1-one] | 0.02 µM |
| CCn1ncc2cc(N3CCC4(CCN(S(=O)(=O)c5ccccc5Cl)CC4)C3=O)ccc21 [Example 126, 8-(2-Chloro-benzenesulfonyl)-2-(1-ethyl-1H-indazol-5-yl)-2,8-diaza-spiro[4.5]decan-1-one] | 0.03 µM |
| Cc1nc2ccc(N3CCC4(CCN(S(=O)(=O)c5ccccc5Cl)CC4)C3=O)cc2s1 [Example 127, 8-(2-Chloro-benzenesulfonyl)-2-(2-methyl-benzothiazol-6-yl)-2,8-diaza-spiro[4.5]decan-1-one] | 0.06 µM |
| O=C1N(c2ccc(OC3CCCC3)cc2)CCC12CCN(S(=O)(=O)c1ccccc1Cl)CC2 [Example 128, 8-(2-Chloro-benzenesulfonyl)-2-(4-cyclopentyloxy-phenyl)-2,8-diaza-spiro[4.5]decan-1-one] | 0.02 µM |
| O=C1N(c2ccc(OC3CCOC3)cc2)CCC12CCN(S(=O)(=O)c1ccccc1Cl)CC2 (centres unmarked) [Example 129, 8-(2-Chloro-benzenesulfonyl)-2-[4-(tetrahydro-furan-3-yloxy)-phenyl]-2,8-diaza-spiro[4.5]decan-1-one] | 0.04 µM |
| Cn1ncc2cc(N3CCC4(CCN(S(=O)(=O)c5ccccc5Cl)CC4)C3=O)ccc21 [Example 130, 8-(2-Chloro-benzenesulfonyl)-2-(1-methyl-1H-indazol-5-yl)-2,8-diaza-spiro[4.5]decan-1-one] | 0.05 µM |
| Cn1cc2cc(N3CCC4(CCN(S(=O)(=O)c5ccccc5Cl)CC4)C3=O)ccc2n1 [Example 131, 8-(2-Chloro-benzenesulfonyl)-2-(2-methyl-2H-indazol-5-yl)-2,8-diaza-spiro[4.5]decan-1-one] | 0.57 µM |
| O=C1N(c2ccc(Oc3cccnc3)cc2)CCC12CCN(S(=O)(=O)c1ccccc1Cl)CC2 [Example 132, 8-(2-Chloro-benzenesulfonyl)-2-[4-(pyridin-3-yloxy)-phenyl]-2,8-diaza-spiro[4.5]decan-1-one] | 0.28 µM |
| O=C1N(c2ccc(OCC3CCCC3)cc2)CCC12CCN(S(=O)(=O)c1ccccc1Cl)CC2 [Example 133, 8-(2-Chloro-benzenesulfonyl)-2-(4-cyclopentylmethoxy-phenyl)-2,8-diaza-spiro[4.5]decan-1-one] | 0.6 µM |
| CCOC(=O)Cc1ccc(N2CCC3(CCN(S(=O)(=O)c4ccccc4Cl)CC3)C2=O)cc1 [Example 134, {4-[8-(2-Chloro-benzenesulfonyl)-1-oxo-2,8-diaza-spiro[4.5]dec-2-yl]-phenyl}-acetic acid ethyl ester] | 0.05 µM |
| N#CCc1ccc(N2CCC3(CCN(S(=O)(=O)c4ccccc4Cl)CC3)C2=O)cc1 [Example 135, {4-[8-(2-Chloro-benzenesulfonyl)-1-oxo-2,8-diaza-spiro[4.5]dec-2-yl]-phenyl}-acetonitrile] | 0.09 µM |
| Cc1nc(Cc2ccc(N3CCC4(CCN(S(=O)(=O)c5ccccc5Cl)CC4)C3=O)cc2)no1 [Example 136, 8-(2-Chloro-benzenesulfonyl)-2-[4-(5-methyl-[1,2,4]oxadiazol-3-ylmethyl)-phenyl]-2,8-diaza-spiro[4.5]decan-1-one] | 0.08 µM |
| Cc1nnc(Cc2ccc(N3CCC4(CCN(S(=O)(=O)c5ccccc5Cl)CC4)C3=O)cc2)o1 [Example 137, 8-(2-Chloro-benzenesulfonyl)-2-[4-(5-methyl-[1,3,4]oxadiazol-2-ylmethyl)-phenyl]-2,8-diaza-spiro[4.5]decan-1-one] | 0.22 µM |
| O=C1N(c2ccc(Cc3nnc(C(F)(F)F)o3)cc2)CCC12CCN(S(=O)(=O)c1ccccc1Cl)CC2 [Example 138, 8-(2-Chloro-benzenesulfonyl)-2-[4-(5-trifluoromethyl-[1,3,4]oxadiazol-2-ylmethyl)-phenyl]-2,8-diaza-spiro[4.5]decan-1-one] | 0.53 µM |
